# Source: PubChem BioAssay AID1963960 (Molecular Pharmacology Branch, DTP, NCI, 2024)
# System: MDA-MB-468 spheroids with HUVEC/MSC, viability
# Assay: Anticancer human tumor MDA-MB-468 cell line growth inhibition [PI3K];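 note: spheroids exposed to agents for seven days before readout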;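 for viability, T/C: 100% = DMSO vehicle control viability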
# Settings: for IC50: curve of first compound; for viability, T/C: stronger effect = lower value
# How it was run: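 Targeted small molecules plus PI3K inhibitors, half-log dose series from Cmax (default top 10 microM), were applied to heterotypic spheroids of cancer cells with HUVEC and MSCs. Viability indicated growth inhibition.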
smiles,measurement,setting,value
CNC(=O)c1ccc(N2C(=S)N(c3ccc(C#N)c(C(F)(F)F)c3)C(=O)C2(C)C)cc1F + COc1c(OCCCN2CCOCC2)ccc2c3n(c(=NC(=O)c4cnc(N)nc4)nc12)CCN3,IC50,second compound 0.00316 µM,> 10000 nM
same,IC50,second compound 0.01 µM,> 10000 nM
same,IC50,second compound 0.0316 µM,> 10000 nM
same,IC50,second compound 0.1 µM,> 10000 nM
same,IC50,second compound 0.316 µM,< 31.6 nM
same,IC50,second compound 1 µM,< 31.6 nM
same,"viability, T/C","second compound 0.00316 µM, first compound 0.0316 µM",85.4%
same,"viability, T/C","second compound 0.00316 µM, first compound 0.1 µM",90.6%
same,"viability, T/C","second compound 0.00316 µM, first compound 0.316 µM",88.5%
same,"viability, T/C","second compound 0.00316 µM, first compound 1 µM",101%
same,"viability, T/C","second compound 0.00316 µM, first compound 3.16 µM",77.4%
same,"viability, T/C","second compound 0.00316 µM, first compound 10 µM",70.8%
same,"viability, T/C","second compound 0.01 µM, first compound 0.0316 µM",81.9%
same,"viability, T/C","second compound 0.01 µM, first compound 0.1 µM",89.8%
same,"viability, T/C","second compound 0.01 µM, first compound 0.316 µM",87.8%
same,"viability, T/C","second compound 0.01 µM, first compound 1 µM",86.2%
same,"viability, T/C","second compound 0.01 µM, first compound 3.16 µM",79.7%
same,"viability, T/C","second compound 0.01 µM, first compound 10 µM",75.6%
same,"viability, T/C","second compound 0.0316 µM, first compound 0.0316 µM",82.4%
same,"viability, T/C","second compound 0.0316 µM, first compound 0.1 µM",80.7%
same,"viability, T/C","second compound 0.0316 µM, first compound 0.316 µM",82.8%
same,"viability, T/C","second compound 0.0316 µM, first compound 1 µM",80.2%
same,"viability, T/C","second compound 0.0316 µM, first compound 3.16 µM",82.5%
same,"viability, T/C","second compound 0.0316 µM, first compound 10 µM",60.7%
same,"viability, T/C","second compound 0.1 µM, first compound 0.0316 µM",52.7%
same,"viability, T/C","second compound 0.1 µM, first compound 0.1 µM",54.2%
same,"viability, T/C","second compound 0.1 µM, first compound 0.316 µM",59.5%
same,"viability, T/C","second compound 0.1 µM, first compound 1 µM",57%
same,"viability, T/C","second compound 0.1 µM, first compound 3.16 µM",59.9%
same,"viability, T/C","second compound 0.1 µM, first compound 10 µM",49.2%
same,"viability, T/C","second compound 0.316 µM, first compound 0.0316 µM",26.4%
same,"viability, T/C","second compound 0.316 µM, first compound 0.1 µM",27.4%
same,"viability, T/C","second compound 0.316 µM, first compound 0.316 µM",29.3%
same,"viability, T/C","second compound 0.316 µM, first compound 1 µM",30.1%
same,"viability, T/C","second compound 0.316 µM, first compound 3.16 µM",29.6%
same,"viability, T/C","second compound 0.316 µM, first compound 10 µM",20.8%
same,"viability, T/C","second compound 1 µM, first compound 0.0316 µM",4.39%
same,"viability, T/C","second compound 1 µM, first compound 0.1 µM",4.39%
same,"viability, T/C","second compound 1 µM, first compound 0.316 µM",4.07%
same,"viability, T/C","second compound 1 µM, first compound 1 µM",4.23%
same,"viability, T/C","second compound 1 µM, first compound 3.16 µM",4.41%
same,"viability, T/C","second compound 1 µM, first compound 10 µM",2.21%
Cn1cnc2c(F)c(Nc3ccc(Br)cc3Cl)c(C(=O)NOCCO)cc21 + COc1c(OCCCN2CCOCC2)ccc2c3n(c(=NC(=O)c4cnc(N)nc4)nc12)CCN3,IC50,second compound 0.00316 µM,> 3000 nM
same,IC50,second compound 0.01 µM,> 3000 nM
same,IC50,second compound 0.0316 µM,1080 nM
same,IC50,second compound 0.1 µM,114 nM
same,IC50,second compound 0.316 µM,< 9.49 nM
same,IC50,second compound 1 µM,< 9.49 nM
same,"viability, T/C","second compound 0.00316 µM, first compound 0.00949 µM",80.8%
same,"viability, T/C","second compound 0.00316 µM, first compound 0.03 µM",88.8%
same,"viability, T/C","second compound 0.00316 µM, first compound 0.0949 µM",84.4%
same,"viability, T/C","second compound 0.00316 µM, first compound 0.3 µM",78.3%
same,"viability, T/C","second compound 0.00316 µM, first compound 0.949 µM",62.5%
same,"viability, T/C","second compound 0.00316 µM, first compound 3 µM",55.8%
same,"viability, T/C","second compound 0.01 µM, first compound 0.00949 µM",74.8%
same,"viability, T/C","second compound 0.01 µM, first compound 0.03 µM",76.6%
same,"viability, T/C","second compound 0.01 µM, first compound 0.0949 µM",81.1%
same,"viability, T/C","second compound 0.01 µM, first compound 0.3 µM",64.9%
same,"viability, T/C","second compound 0.01 µM, first compound 0.949 µM",60.6%
same,"viability, T/C","second compound 0.01 µM, first compound 3 µM",49.3%
same,"viability, T/C","second compound 0.0316 µM, first compound 0.00949 µM",68%
same,"viability, T/C","second compound 0.0316 µM, first compound 0.03 µM",69.7%
same,"viability, T/C","second compound 0.0316 µM, first compound 0.0949 µM",64.2%
same,"viability, T/C","second compound 0.0316 µM, first compound 0.3 µM",57.3%
same,"viability, T/C","second compound 0.0316 µM, first compound 0.949 µM",53.8%
same,"viability, T/C","second compound 0.0316 µM, first compound 3 µM",37.3%
same,"viability, T/C","second compound 0.1 µM, first compound 0.00949 µM",55.2%
same,"viability, T/C","second compound 0.1 µM, first compound 0.03 µM",47.9%
same,"viability, T/C","second compound 0.1 µM, first compound 0.0949 µM",51.2%
same,"viability, T/C","second compound 0.1 µM, first compound 0.3 µM",46.4%
same,"viability, T/C","second compound 0.1 µM, first compound 0.949 µM",32.1%
same,"viability, T/C","second compound 0.1 µM, first compound 3 µM",15.6%
same,"viability, T/C","second compound 0.316 µM, first compound 0.00949 µM",26.5%
same,"viability, T/C","second compound 0.316 µM, first compound 0.03 µM",23.4%
same,"viability, T/C","second compound 0.316 µM, first compound 0.0949 µM",18.5%
same,"viability, T/C","second compound 0.316 µM, first compound 0.3 µM",16.4%
same,"viability, T/C","second compound 0.316 µM, first compound 0.949 µM",11.8%
same,"viability, T/C","second compound 0.316 µM, first compound 3 µM",4.57%
same,"viability, T/C","second compound 1 µM, first compound 0.00949 µM",2.75%
same,"viability, T/C","second compound 1 µM, first compound 0.03 µM",2.53%
same,"viability, T/C","second compound 1 µM, first compound 0.0949 µM",1.74%
same,"viability, T/C","second compound 1 µM, first compound 0.3 µM",1.38%
same,"viability, T/C","second compound 1 µM, first compound 0.949 µM",1.4%
same,"viability, T/C","second compound 1 µM, first compound 3 µM",0.51%
